Results as given in ChEMBL document CHEMBL1201862, “PubChem BioAssay data set” (2004).
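Five compound concentrations were applied to cells in 96-well plates for 48 hours; endpoints were derived by simple linear interpolation of the resulting dose-response curve. GI50 marks 50% less growth.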 Active and inactive are the calls of the source. Rule as the data show it: active = GI50 up to about 1.1 µM and inactive = higher.

Key:
Assay in all cases: growth of human tumour cells (NCI), 48 h
[1] = tested on: NCI-H23
[2] = tested on: SN12C
[3] = tested on: Malme-3M
[4] = tested on: SK-MEL-5
[5] = tested on: LOX IMVI
[6] = tested on: MOLT-4
[7] = tested on: SF-295
[8] = tested on: Hs-578T
[9] = tested on: MDA-MB-231
[10] = tested on: SK-MEL-28
[11] = tested on: M14
[12] = tested on: HOP-92
[13] = tested on: K562
[14] = tested on: ACHN
[15] = tested on: NCI-H226
[16] = tested on: MDA-MB-435
[17] = tested on: MDA-N
[18] = tested on: SR
[19] = tested on: DU-145
[20] = tested on: A549
[21] = tested on: NCI-H460
[22] = tested on: SW-620
[23] = tested on: HCT-15
[24] = tested on: SNB-19
[25] = tested on: EKVX
[26] = tested on: SK-OV-3
[27] = tested on: HL-60
[28] = tested on: IGROV-1
[29] = tested on: A498
[30] = tested on: T47D
[31] = tested on: RXF 393
[32] = tested on: UACC-257
[33] = tested on: OVCAR-4
[34] = tested on: SF-539
[35] = tested on: HCC 2998
[36] = tested on: BT-549
[37] = tested on: NCI-H522
[38] = tested on: SK-MEL-2
[39] = tested on: NCI/ADR-RES
[40] = tested on: TK-10
[41] = tested on: HCT-116
[42] = tested on: OVCAR-5
[43] = tested on: UO-31
[44] = tested on: HOP-62
[45] = tested on: COLO 205
[46] = tested on: OVCAR-8
[47] = tested on: UACC-62
[48] = tested on: CCRF-CEM
[49] = tested on: SF-268
[50] = tested on: CAKI-1
[51] = tested on: KM12
[52] = tested on: RPMI-8226
[53] = tested on: SNB-75
[54] = tested on: HT-29
[55] = tested on: MCF7
[56] = tested on: PC-3
[57] = tested on: OVCAR-3
[58] = tested on: 786-0
[59] = tested on: U-251

O=c1c2ccccc2c2ccccc2c(=O)n1Cc1ccc2c(c1)OCO2
GI50 [1]: 24.7 µM (inactive)
GI50 [2]: 37.5 µM (inactive)
GI50 [3]: 67.9 µM (inactive)
GI50 [4]: 20.3 µM (inactive)
GI50 [5]: 40 µM (inactive)
GI50 [6]: 12.9 µM (inactive)
GI50 [7]: 35.4 µM (inactive)
GI50 [8]: 37.9 µM (inactive)
GI50 [9]: > 96.2 µM (inactive)
GI50 [10]: 56.6 µM (inactive)
GI50 [11]: 26.9 µM (inactive)
GI50 [12]: > 94.8 µM (inactive)
GI50 [13]: 7.45 µM (inactive)
GI50 [14]: 45.4 µM (inactive)
GI50 [15]: 56.1 µM (inactive)
GI50 [16]: 6.17 µM (inactive)
GI50 [17]: 10.1 µM (inactive)
GI50 [18]: 4.91 µM (inactive)
GI50 [19]: 49.9 µM (inactive)
GI50 [20]: 32.1 µM (inactive)
GI50 [21]: 24.6 µM (inactive)
GI50 [22]: 33.3 µM (inactive)
GI50 [23]: 17 µM
GI50 [24]: 52.1 µM (inactive)
GI50 [25]: 36.1 µM (inactive)
GI50 [26]: 41.4 µM (inactive)
GI50 [27]: 11.4 µM (inactive)
GI50 [28]: 8.51 µM (inactive)
GI50 [29]: > 70.5 µM (inactive)
GI50 [30]: 39.9 µM (inactive)
GI50 [31]: 36 µM (inactive)
GI50 [32]: 57.1 µM (inactive)
GI50 [33]: > 67.3 µM (inactive)
GI50 [34]: 27.1 µM (inactive)
GI50 [35]: 25.1 µM (inactive)
GI50 [36]: 20.9 µM (inactive)
GI50 [37]: 30.8 µM (inactive)
GI50 [38]: 39.7 µM (inactive)
GI50 [39]: 24.9 µM (inactive)
GI50 [40]: > 100 µM (inactive)
GI50 [41]: 19.1 µM (inactive)
GI50 [42]: 34 µM (inactive)
GI50 [43]: 49.5 µM (inactive)
GI50 [44]: 62.1 µM (inactive)
GI50 [45]: 34 µM (inactive)
GI50 [46]: 45.7 µM (inactive)
GI50 [47]: 21.6 µM (inactive)
GI50 [48]: 19.1 µM (inactive)
GI50 [49]: 59.7 µM (inactive)
GI50 [50]: 69.7 µM (inactive)
GI50 [51]: 19.5 µM (inactive)
GI50 [52]: 15.9 µM (inactive)
GI50 [53]: 42.7 µM (inactive)
GI50 [54]: 22.6 µM (inactive)
GI50 [55]: 38.9 µM (inactive)
GI50 [56]: 42.8 µM (inactive)
GI50 [57]: 24.6 µM (inactive)
GI50 [58]: 27 µM (inactive)
GI50 [59]: > 62.2 µM (inactive)

CC(C)(Cl)C(Br)CC/C(=C/CCl)CBr.CC(C)(Cl)C(Br)CC/C(=C\CCl)CBr (centres undefined)
GI50 [1]: 1.91 µM (inactive)
GI50 [2]: 2.49 µM (inactive)
GI50 [3]: 1.71 µM (inactive)
GI50 [4]: 3.1 µM (inactive)
GI50 [6]: 1.34 µM (inactive)
GI50 [7]: 3.51 µM (inactive)
GI50 [8]: 3.67 µM (inactive)
GI50 [9]: 1.74 µM (inactive)
GI50 [10]: 2.06 µM (inactive)
GI50 [11]: 1.9 µM (inactive)
GI50 [12]: 2.07 µM (inactive)
GI50 [13]: 1.72 µM (inactive)
GI50 [14]: 2.77 µM (inactive)
GI50 [15]: 18.7 µM (inactive)
GI50 [16]: 2 µM (inactive)
GI50 [17]: 1.64 µM (inactive)
GI50 [18]: 1.29 µM (inactive)
GI50 [19]: 3.32 µM (inactive)
GI50 [20]: 14.4 µM (inactive)
GI50 [21]: 2.02 µM (inactive)
GI50 [22]: 1.92 µM (inactive)
GI50 [23]: 1.43 µM
GI50 [24]: 2.1 µM (inactive)
GI50 [25]: 8.97 µM (inactive)
GI50 [26]: 16.9 µM (inactive)
GI50 [27]: 0.802 µM (active)
GI50 [28]: 2.31 µM (inactive)
GI50 [29]: 4.94 µM (inactive)
GI50 [30]: 1.08 µM (active)
GI50 [31]: 2.62 µM (inactive)
GI50 [32]: 2.5 µM (inactive)
GI50 [33]: 2.34 µM (inactive)
GI50 [34]: 1.88 µM (inactive)
GI50 [35]: 1.58 µM (inactive)
GI50 [36]: 3.05 µM (inactive)
GI50 [37]: 0.998 µM (active)
GI50 [38]: 3.21 µM (inactive)
GI50 [39]: 3.23 µM (inactive)
GI50 [40]: 2.26 µM (inactive)
GI50 [41]: 1.77 µM (inactive)
GI50 [42]: 8.89 µM (inactive)
GI50 [43]: 1.6 µM (inactive)
GI50 [44]: 4.1 µM (inactive)
GI50 [45]: 2.4 µM (inactive)
GI50 [46]: 2.06 µM (inactive)
GI50 [47]: 1.93 µM (inactive)
GI50 [48]: 1.32 µM (inactive)
GI50 [49]: 1.8 µM (inactive)
GI50 [51]: 1.83 µM (inactive)
GI50 [52]: 1.17 µM (inactive)
GI50 [53]: 2.9 µM (inactive)
GI50 [54]: 1.85 µM (inactive)
GI50 [55]: 0.733 µM (active)
GI50 [56]: 2.61 µM (inactive)
GI50 [57]: 1.87 µM (inactive)
GI50 [58]: 1.86 µM (inactive)
GI50 [59]: 2.21 µM (inactive)

O=C1C(Cl)C2(CC(/C=C/c3cccs3)=NN2c2cccc(S(=O)(=O)O)c2)N1c1nc2ccccc2s1 (centres undefined)
GI50 [1]: 27.8 µM (inactive)
GI50 [2]: > 100 µM (inactive)
GI50 [3]: > 100 µM (inactive)
GI50 [4]: 16.9 µM (inactive)
GI50 [5]: 15.1 µM (inactive)
GI50 [6]: 31.5 µM (inactive)
GI50 [8]: > 100 µM (inactive)
GI50 [9]: > 100 µM (inactive)
GI50 [10]: > 100 µM (inactive)
GI50 [11]: 99.3 µM (inactive)
GI50 [12]: 1.79 µM (inactive)
GI50 [13]: 35.6 µM (inactive)
GI50 [14]: 58.3 µM (inactive)
GI50 [15]: 27.9 µM (inactive)
GI50 [16]: 45.8 µM (inactive)
GI50 [17]: > 100 µM (inactive)
GI50 [18]: 29.9 µM (inactive)
GI50 [19]: 21.6 µM (inactive)
GI50 [20]: 42 µM (inactive)
GI50 [21]: 31.1 µM (inactive)
GI50 [22]: > 100 µM (inactive)
GI50 [23]: 75.9 µM
GI50 [24]: > 100 µM (inactive)
GI50 [25]: 24.2 µM (inactive)
GI50 [27]: 64.6 µM (inactive)
GI50 [28]: 21.1 µM (inactive)
GI50 [29]: 76.2 µM (inactive)
GI50 [30]: 13.6 µM (inactive)
GI50 [31]: > 100 µM (inactive)
GI50 [32]: 76.9 µM (inactive)
GI50 [33]: 71.3 µM (inactive)
GI50 [34]: > 100 µM (inactive)
GI50 [35]: > 100 µM (inactive)
GI50 [36]: 55.6 µM (inactive)
GI50 [37]: 18.2 µM (inactive)
GI50 [38]: > 100 µM (inactive)
GI50 [39]: > 100 µM (inactive)
GI50 [40]: 19.3 µM (inactive)
GI50 [41]: > 100 µM (inactive)
GI50 [42]: > 100 µM (inactive)
GI50 [43]: 10.9 µM (inactive)
GI50 [45]: > 100 µM (inactive)
GI50 [46]: 41.7 µM (inactive)
GI50 [47]: 59.6 µM (inactive)
GI50 [48]: 20.1 µM (inactive)
GI50 [49]: > 100 µM (inactive)
GI50 [50]: 37.1 µM (inactive)
GI50 [51]: > 100 µM (inactive)
GI50 [52]: 47 µM (inactive)
GI50 [53]: 49.9 µM (inactive)
GI50 [54]: 73.5 µM (inactive)
GI50 [55]: 46.6 µM (inactive)
GI50 [56]: > 100 µM (inactive)
GI50 [58]: 94.6 µM (inactive)
GI50 [59]: 99.8 µM (inactive)

CCOC(=O)N1CCN(c2nc(C)n(-c3ccccc3)c(=S)c2C#N)CC1
GI50 [1]: > 54 µM (inactive)
GI50 [2]: > 100 µM (inactive)
GI50 [4]: > 100 µM (inactive)
GI50 [5]: > 61.9 µM (inactive)
GI50 [6]: > 40.1 µM (inactive)
GI50 [7]: > 66.4 µM (inactive)
GI50 [8]: 34.3 µM (inactive)
GI50 [9]: 23.4 µM (inactive)
GI50 [10]: 61 µM (inactive)
GI50 [11]: > 91 µM (inactive)
GI50 [12]: > 65.9 µM (inactive)
GI50 [13]: > 50 µM (inactive)
GI50 [14]: > 65 µM (inactive)
GI50 [15]: > 61.8 µM (inactive)
GI50 [16]: > 74.6 µM (inactive)
GI50 [17]: > 50 µM (inactive)
GI50 [18]: > 100 µM (inactive)
GI50 [19]: > 90.4 µM (inactive)
GI50 [20]: 97.9 µM (inactive)
GI50 [21]: 52.7 µM (inactive)
GI50 [22]: > 63.4 µM (inactive)
GI50 [23]: > 55.6 µM
GI50 [24]: > 78.2 µM (inactive)
GI50 [25]: > 82.2 µM (inactive)
GI50 [26]: > 82.2 µM (inactive)
GI50 [27]: > 28.7 µM (inactive)
GI50 [28]: 32.4 µM (inactive)
GI50 [29]: > 100 µM (inactive)
GI50 [30]: > 100 µM (inactive)
GI50 [31]: > 95.9 µM (inactive)
GI50 [32]: > 86.9 µM (inactive)
GI50 [33]: 44.1 µM (inactive)
GI50 [34]: > 83.4 µM (inactive)
GI50 [35]: > 100 µM (inactive)
GI50 [36]: > 51.9 µM (inactive)
GI50 [37]: > 34.9 µM (inactive)
GI50 [38]: > 76.4 µM (inactive)
GI50 [39]: 30 µM (inactive)
GI50 [40]: > 81.1 µM (inactive)
GI50 [41]: > 68.2 µM (inactive)
GI50 [42]: > 100 µM (inactive)
GI50 [43]: > 48 µM (inactive)
GI50 [44]: > 75.5 µM (inactive)
GI50 [45]: > 100 µM (inactive)
GI50 [46]: 50.2 µM (inactive)
GI50 [47]: > 43.6 µM (inactive)
GI50 [48]: > 23.4 µM (inactive)
GI50 [49]: 63.1 µM (inactive)
GI50 [50]: > 66.4 µM (inactive)
GI50 [51]: > 83.8 µM (inactive)
GI50 [52]: > 62.7 µM (inactive)
GI50 [53]: 37.2 µM (inactive)
GI50 [54]: > 100 µM (inactive)
GI50 [55]: > 48.9 µM (inactive)
GI50 [56]: > 43.4 µM (inactive)
GI50 [57]: > 75 µM (inactive)
GI50 [58]: 42.8 µM (inactive)
GI50 [59]: 75.3 µM (inactive)
